In EPA's ToxValDB 9.5 (doi:10.2903/j.efsa.2015.4308):

Columns and labels:
Aphidius rhopalosiphi = assay: LR50; higher = less toxic; details: not reported; mortality
Typhlodromus pyri = assay: LR50; higher = less toxic; details: not reported; mortality
Folsomia candida = details: chronic/long-term
Oryctolagus sp. = details: reproduction developmental; body weight
Daphnia magna = details: chronic/long-term; duration: 21 days; reproduction
Pimephales promelas = details: chronic/long-term; duration: 34 days; growth
Bibionidae = details: chronic/long-term
Oncorhynchus mykiss = details: acute; duration: 96 hours; mortality
Canidae = details: chronic; duration: 1 years; oral; F; Dog Other; body weight
Hypoaspis aculeifer = details: chronic/long-term

## [Br-].[Br-].c1cc[n+]2c(c1)-c1cccc[n+]1CC2 [Diquat dibromide]
Aphidius rhopalosiphi
  LR50: 3.2 g/ha
Typhlodromus pyri
  LR50: 2.9 g/ha
Tagia sp.; acute, duration: 14 days, mortality
  LC50: 94.3 mg/kg
Tagia sp.; chronic/long-term, duration: 8 weeks
  NOEC: 37 mg/kg
Folsomia candida
  NOEC: 9.38 mg/kg
Rattus norvegicus; acute, M, mortality
  LD50: 214 mg/kg-day
Rattus norvegicus; chronic, duration: 2 years, ophthalmoscopic examination
  NOAEL: 0.2 mg/kg-day
Rattus norvegicus; reproduction developmental
  NOAEL: 0.2 mg/kg-day
Oryctolagus sp.
  NOAEL: 1 mg/kg-day
Daphnia magna
  NOEC: 125 µg/L
Pimephales promelas
  NOEC: 120 µg/L
Bibionidae; duration: 20 days
  NOEC: 100 mg/kg
Bibionidae; duration: 28 days
  NOEC: 1270 µg/L
Oncorhynchus mykiss
  LC50: 6.1 µg/mL
Canidae
  NOAEL: 0.5 mg/kg-day
Anas platyrhynchos; acute, oral, unspecified, mortality
  LD50: 71 mg/kg-day
Anas platyrhynchos; reproductive
  NOAEL: 0.5 mg/kg-day
Hypoaspis aculeifer
  NOEC: 50 mg/kg
